PubChem BioAssay (NCI)
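GI50: concentration for 50% inhibition of growth. TGI denotes the concentration required for complete inhibition of growth.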

Assays:
Experiment in all cases: DTP human tumour cell line panel, 384-well format
[1] = test system: T-47D breast
[2] = test system: TK-10 renal
[3] = test system: ACHN renal
[4] = test system: COLO 205 colon
[5] = test system: MDA-MB-435 melanoma
[6] = test system: UACC-62 melanoma
[7] = test system: HL-60(TB) leukemia
[8] = test system: CCRF-CEM leukemia
[9] = test system: HCC-2998 colon
[10] = test system: SK-MEL-2 melanoma
[11] = test system: SF-295 CNS
[12] = test system: MOLT-4 leukemia
[13] = test system: A498 renal
[14] = test system: EKVX NSCLC
[15] = test system: IGROV1 ovarian
[16] = test system: SW-620 colon
[17] = test system: NCI-H522 lung
[18] = test system: MALME-3M melanoma
[19] = test system: NCI/ADR-RES ovarian
[20] = test system: SK-MEL-5 melanoma
[21] = test system: SNB-75 CNS
[22] = test system: NCI-H23 lung
[23] = test system: UO-31 renal
[24] = test system: HCT-116 colon
[25] = test system: NCI-H460 NSCLC
[26] = test system: NCI-H226 lung
[27] = test system: HOP-62 NSCLC
[28] = test system: 786-0 renal
[29] = test system: SK-OV-3 ovarian
[30] = test system: KM12 colon
[31] = test system: HT29 colon
[32] = test system: OVCAR-8 ovarian
[33] = test system: K-562 leukemia
[34] = test system: CAKI-1 renal
[35] = test system: BT-549 breast
[36] = test system: LOX IMVI melanoma
[37] = test system: UACC-257 melanoma
[38] = test system: MDA-MB-231 breast
[39] = test system: OVCAR-3 ovarian
[40] = test system: SF-539 CNS
[41] = test system: M14 melanoma
[42] = test system: U251 glioblastoma
[43] = test system: MDA-MB-468 breast
[44] = test system: MCF7 breast
[45] = test system: OVCAR-4 ovarian
[46] = test system: OVCAR-5 ovarian
[47] = test system: RPMI-8226 leukemia
[48] = test system: SNB-19 CNS
[49] = test system: RXF 393 renal
[50] = test system: HS 578T breast
[51] = test system: SK-MEL-28 melanoma
[52] = test system: HOP-92 NSCLC
[53] = test system: SF-268 CNS
[54] = test system: NCI-H322M lung
[55] = test system: PC-3 prostate
[56] = test system: A549 NSCLC
[57] = test system: HCT-15 colon
[58] = test system: SN12C renal
[59] = test system: DU-145 prostate

SMILES: Cn1cc(-c2ccc(=O)n(Cc3cccc(-c4ncc(OCCN5CCOCC5)cn4)c3)n2)cn1
- GI50 [1]: 18.3 µM
- TGI [1]: 72.2 µM
- GI50 [2]: > 100 µM
- TGI [2]: > 100 µM
- GI50 [3]: > 100 µM
- TGI [3]: > 100 µM
- GI50 [4]: > 100 µM
- TGI [4]: > 100 µM
- GI50 [5]: > 100 µM
- TGI [5]: > 100 µM
- GI50 [6]: > 100 µM
- TGI [6]: > 100 µM
- GI50 [7]: 35.8 µM
- TGI [7]: 94.6 µM
- GI50 [8]: 21.6 µM
- TGI [8]: 57.4 µM
- GI50 [9]: > 100 µM
- TGI [9]: > 100 µM
- GI50 [10]: > 100 µM
- TGI [10]: > 100 µM
- GI50 [11]: 71.2 µM
- TGI [11]: > 100 µM
- GI50 [12]: 18.6 µM
- TGI [12]: 37.1 µM
- GI50 [13]: > 100 µM
- TGI [13]: > 100 µM
- GI50 [14]: 39.5 µM
- TGI [14]: > 100 µM
- GI50 [15]: > 100 µM
- TGI [15]: > 100 µM
- GI50 [16]: > 100 µM
- TGI [16]: > 100 µM
- GI50 [17]: 62.6 µM
- TGI [17]: > 100 µM
- GI50 [18]: > 100 µM
- TGI [18]: > 100 µM
- GI50 [19]: 32.9 µM
- TGI [19]: > 100 µM
- GI50 [20]: 16.5 µM
- TGI [20]: 36.8 µM
- GI50 [21]: 98.9 µM
- TGI [21]: > 100 µM
- GI50 [22]: 14.5 µM
- TGI [22]: > 100 µM
- GI50 [23]: > 100 µM
- TGI [23]: > 100 µM
- GI50 [24]: 75.5 µM
- TGI [24]: > 100 µM
- GI50 [25]: 72 µM
- TGI [25]: > 100 µM
- GI50 [26]: 28.9 µM
- TGI [26]: > 100 µM
- GI50 [27]: 23.7 µM
- TGI [27]: 98.6 µM
- GI50 [28]: > 100 µM
- TGI [28]: > 100 µM
- GI50 [29]: > 100 µM
- TGI [29]: > 100 µM
- GI50 [30]: 66.1 µM
- TGI [30]: > 100 µM
- GI50 [31]: > 100 µM
- TGI [31]: > 100 µM
- GI50 [32]: 61.8 µM
- TGI [32]: > 100 µM
- GI50 [33]: 35.1 µM
- TGI [33]: > 100 µM
- GI50 [34]: 82.5 µM
- TGI [34]: > 100 µM
- GI50 [35]: 33.8 µM
- TGI [35]: > 100 µM
- GI50 [36]: 37.6 µM
- TGI [36]: > 100 µM
- GI50 [37]: 55.5 µM
- TGI [37]: > 100 µM
- GI50 [38]: > 100 µM
- TGI [38]: > 100 µM
- GI50 [39]: > 100 µM
- TGI [39]: > 100 µM
- GI50 [40]: > 100 µM
- TGI [40]: > 100 µM
- GI50 [41]: > 100 µM
- TGI [41]: > 100 µM
- GI50 [42]: 64.2 µM
- TGI [42]: > 100 µM
- GI50 [43]: 17.7 µM
- TGI [43]: 54.6 µM
- GI50 [44]: 48.6 µM
- TGI [44]: > 100 µM
- GI50 [45]: 78.3 µM
- TGI [45]: > 100 µM
- GI50 [46]: > 100 µM
- TGI [46]: > 100 µM
- GI50 [47]: 24.9 µM
- TGI [47]: > 100 µM
- GI50 [48]: > 100 µM
- TGI [48]: > 100 µM
- GI50 [49]: 56.6 µM
- TGI [49]: > 100 µM
- GI50 [50]: 97.8 µM
- TGI [50]: > 100 µM
- GI50 [51]: > 100 µM
- TGI [51]: > 100 µM
- GI50 [52]: > 100 µM
- TGI [52]: > 100 µM
- GI50 [53]: > 100 µM
- TGI [53]: > 100 µM
- GI50 [54]: > 100 µM
- TGI [54]: > 100 µM
- GI50 [55]: 67.8 µM
- TGI [55]: > 100 µM
- GI50 [56]: > 100 µM
- TGI [56]: > 100 µM
- GI50 [57]: > 100 µM
- TGI [57]: > 100 µM
- GI50 [58]: > 100 µM
- TGI [58]: > 100 µM
- GI50 [59]: > 100 µM
- TGI [59]: > 100 µM
